# Reference: PubChem BioAssay (NCI)
#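 How tested: cells in 96-well plates exposed to compound for 48 hours at five concentrations. Here, GI50 denotes the concentration required for 50% inhibition of growth. At the TGI there is no net growth.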
# How the values were obtained:
# Assay in all cases: growth of human tumour cells (NCI), 48 h
# [1] = test system: A549 NSCLC
# [2] = test system: ACHN renal
# [3] = test system: HCC-2998 colon
# [4] = test system: HS 578T breast
# [5] = test system: K-562 leukemia
# [6] = test system: KM12 colon
# [7] = test system: NCI-H226 lung
# [8] = test system: SK-MEL-28 melanoma
# [9] = test system: SK-MEL-5 melanoma
# [10] = test system: SF-268 CNS
Compound,GI50 [1] [µM],TGI [1] [µM],GI50 [2] [µM],TGI [2] [µM],GI50 [3] [µM],TGI [3] [µM],GI50 [4] [µM],TGI [4] [µM],GI50 [5] [µM],TGI [5] [µM],GI50 [6] [µM],TGI [6] [µM],GI50 [7] [µM],TGI [7] [µM],GI50 [8] [µM],TGI [8] [µM],GI50 [9] [µM],TGI [9] [µM],GI50 [10] [µM],TGI [10] [µM]
CO/N=C(\COc1ccc2oc(-c3ccccc3)cc(=O)c2c1)c1ccc(OC)cc1,24.4,73,23.4,51.9,21.4,48.6,35.1,> 100,27.3,> 100,27.1,> 100,50.1,> 100,30.7,> 100,22.2,46.7,–,–
Cc1cn2c(/C=N/N=C(N)N)c(-c3ccccn3)nc2s1,21.1,> 70.1,21.8,51.7,–,–,19.5,55.6,19.5,> 100,15.4,33.2,25.1,> 58.2,11.6,36.9,7.95,25.8,8.62,45.4
Nc1n[n+](-c2ccccc2)no1,–,> 100,–,> 100,–,> 100,–,–,–,> 100,–,> 100,–,> 100,–,–,–,> 100,–,> 100
Cc1ccc(C(=O)/C(=C\c2ccc([N+](=O)[O-])cc2)S(=O)Cc2ccc(Cl)cc2)cc1 (stereo not given),3.05,11,2.09,4.98,1.82,3.36,2.48,7.39,–,–,2.33,6.2,2.81,11.5,1.76,3.4,1.69,3.23,1.75,3.42
CC1=C(O)/C(=C/C(C)CCC/C(C)=C/C=C/C(C)CCCc2ccoc2)OC1=O (stereo not given),–,73.6,–,50.9,–,63,–,–,–,–,–,> 100,–,68.8,–,> 100,–,–,–,97.9
N#CC1(C#N)C2C=CC(c3coc4cccc2c34)C1(C#N)C#N (stereo not given),–,37.5,–,17,–,30,–,–,–,6.22,–,33.8,–,34.3,–,10.8,–,28.8,–,20.3
COc1ccc(/C=C2\CCC(CCN(C)C)(C3=CCCC3)C2=O)cc1Br (stereo not given),–,24,–,21.5,–,4.71,–,–,–,5.23,–,14.9,–,31.4,–,7.7,–,3.15,–,23
CCCCCCCCCC(=O)OCC1OC(n2cc(F)c(=O)[nH]c2=O)C(NC(=O)OCc2ccccc2)C(OC(=O)CCCCCCCCC)C1O (stereo not given),–,> 100,–,> 100,–,> 100,–,–,–,> 100,–,> 100,–,–,–,> 100,–,41.5,–,> 100
Cc1cccc(C(C)(C)C)c1NC(=O)CCc1nc(=S)[nH][nH]1,–,> 100,–,> 100,–,> 100,–,–,–,> 100,–,> 100,–,> 100,–,> 100,–,> 100,–,> 100
CCOC(=O)C(CC/C=C\c1ccccc1)N1CCC[C@H]1C(=O)OC (stereo not given in full),–,> 100,–,> 100,–,> 100,–,–,–,> 100,–,> 100,–,> 100,–,> 100,–,> 100,–,> 100
CCOC(=O)c1cnc2sc3ccc4ccccc4c3n2c1=O,–,> 100,–,> 100,–,> 100,–,–,–,> 100,–,> 100,–,> 100,–,> 100,–,> 100,–,> 100
CC(=O)c1c(CO[N+](=O)[O-])n([O-])c2ccccc2[n+]1=O,–,> 100,–,> 100,–,–,–,> 100,–,> 100,–,–,–,> 100,–,> 100,–,> 100,–,> 100
O=C(O/N=C1/CCC/C1=C\c1ccccc1)c1ccc(Cl)c(Cl)c1,–,> 100,–,> 100,–,> 100,–,–,–,> 100,–,> 100,–,> 100,–,> 100,–,> 100,–,> 100
Cc1ccc(NC(=O)CSc2nnc3n(Cc4ccccc4)c(=O)c4c(C)c(C(N)=O)sc4n23)cc1,> 100,> 100,19.9,51,> 100,> 100,5.22,77.6,42.5,> 100,> 100,> 100,27.2,> 100,–,–,> 100,> 100,14.4,86.8
CCOC(=O)c1cnc2c(ccc3ncccc32)c1NCCCN(CC)CC,–,> 100,–,> 100,–,> 100,–,–,–,> 100,–,> 100,–,> 100,–,> 100,–,> 100,–,> 100
O=C1C2CCN(CC2)C1(CO)CO,–,> 100,–,32.3,–,–,–,70.6,–,54.5,–,> 93.2,–,46.6,–,44.5,–,> 73.3,–,> 100
C/C=C(\CCOS(=O)(=O)c1ccc(C)cc1)[Si](C)(C)C,–,> 100,–,> 100,–,> 100,–,–,–,> 100,–,> 100,–,–,–,> 100,–,> 100,–,> 100
O=C(CCn1[nH]c(=O)c(Cl)c(Cl)c1=O)NNC(=O)C[n+]1ccccc1,–,> 100,–,> 100,–,> 100,–,–,–,> 100,–,> 100,–,> 100,–,> 100,–,> 100,–,> 100
CC1(N)CCN(c2cnc(-c3cccc(Cl)c3Cl)c(N)n2)CC1,16.6,> 100,10.9,> 100,22,77.6,13.3,64,–,–,7.13,> 100,3.2,> 100,16.3,32.3,15.2,28.6,22.7,> 100
